Results on twelve compounds are retold here after PubChem BioAssay (NCI).

Test systems include A549 NSCLC; EKVX NSCLC; KM12 colon; LOX IMVI melanoma; M14 melanoma; NCI-H226 lung; NCI-H522 lung; RPMI-8226 leukemia; RXF 393 renal; SF-268 CNS; SK-MEL-2 melanoma; SK-MEL-28 melanoma; UO-31 renal; BT-549 breast.
Common to all, as to assay: NCI tumour cell line growth inhibition, 48 h

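The compound was tested at five concentrations on cells cultured in 96-well plates, with a 48-hour exposure period. TGI: concentration producing complete growth inhibition.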 Where a SMILES comes first, the peptide text is derived from it. [ ]: non-standard residue; d: D form. The star is where a group is joined. ξ: configuration not given here. ξF = NC(Cc1ccccc1)C(=O)O; Cbz = O=C(OCc1ccccc1)* Where only a bound is given, the exact number is not on record here.

On to `COC(=O)C1CCC(=O)N1CN(C(C)=O)c1cccc(O)c1` (centres undefined), for which the TGI with A549 NSCLC, in the assay on EKVX NSCLC, in the assay with KM12 colon, in the assay on LOX IMVI melanoma, in the assay on M14 melanoma and with NCI-H226 lung was more than 100 µM in each case. The TGI in the assay on NCI-H522 lung, in the assay on RPMI-8226 leukemia, with RXF 393 renal, in the assay on SF-268 CNS, in the assay on SK-MEL-2 melanoma and in the assay with SK-MEL-28 melanoma was more than 100 µM throughout. The compound also displayed a TGI with UO-31 renal of more than 100 µM.

On to `COC(=O)[C@@]12OC[C@]34C([C@@H](O)C1O)[C@@]1(C)CC(=O)C(OC(=O)CC(C)C(F)(F)F)=C(C)C1C[C@H]3OC(=O)[C@H](O)[C@H]42` (some centres undefined), for which the TGI was more than 62.5 µM in the assay on A549 NSCLC; more than 62.5 µM with EKVX NSCLC; more than 62.5 µM in the assay on KM12 colon; 9.76 µM in the assay on M14 melanoma; 14.5 µM with NCI-H226 lung; 24.5 µM with NCI-H522 lung. The TGI in the assay on RPMI-8226 leukemia was 5.56 µM; in the assay on RXF 393 renal, 23.6 µM; in the assay on SF-268 CNS, 56.8 µM; with SK-MEL-2 melanoma it was 15.5 µM; with SK-MEL-28 melanoma, 18.2 µM; in the assay with UO-31 renal, more than 62.5 µM.

As to `COC(CN(C)C(=S)Nc1cccc2ccccc12)OC`, the TGI with A549 NSCLC, with EKVX NSCLC, in the assay with KM12 colon, with LOX IMVI melanoma, in the assay with M14 melanoma and in the assay with NCI-H226 lung was more than 10 µM in each case. The TGI in the assay with NCI-H522 lung, in the assay on RPMI-8226 leukemia, in the assay on RXF 393 renal, in the assay on SF-268 CNS, with SK-MEL-2 melanoma and in the assay with SK-MEL-28 melanoma was more than 10 µM in each case. In the assay on UO-31 renal, this compound came in with a TGI of more than 10 µM.

For `C1CSCCSCCCS[C@@H]2CCCCC2SC1` (some centres undefined), the TGI with A549 NSCLC, with EKVX NSCLC, in the assay on KM12 colon, with LOX IMVI melanoma, in the assay on M14 melanoma and with NCI-H226 lung was more than 100 µM in each case. Besides, the TGI with NCI-H522 lung was more than 100 µM; with RPMI-8226 leukemia, 52.6 µM; with RXF 393 renal it was more than 100 µM; with SF-268 CNS it was more than 100 µM; with SK-MEL-2 melanoma, more than 100 µM; with SK-MEL-28 melanoma, more than 100 µM. Besides, the TGI in the assay on UO-31 renal was more than 100 µM.

In the case of `Oc1c(N2CCCCC2)cc(-c2cc(N3CCCCC3)c(O)c3ccccc23)c2ccccc12`, the TGI with A549 NSCLC was more than 100 µM; in the assay with EKVX NSCLC, more than 100 µM; in the assay on KM12 colon, more than 100 µM; in the assay on LOX IMVI melanoma it was 73.2 µM; in the assay with M14 melanoma, 32 µM; with NCI-H226 lung, more than 100 µM. For the same compound, the TGI with RPMI-8226 leukemia was more than 100 µM; in the assay with RXF 393 renal it was 77.7 µM; with SF-268 CNS, more than 100 µM; in the assay with SK-MEL-2 melanoma, 91.6 µM; with SK-MEL-28 melanoma, 40.9 µM; in the assay on UO-31 renal, more than 100 µM.

In the case of `Cc1c(C)c(S(=O)(=O)N(CCCCN)OCCCN)c(C)c2c1OC(C)(C)CC2`, the TGI was found to be 56.3 µM in the assay with A549 NSCLC; 31.9 µM in the assay with EKVX NSCLC; 42.8 µM with KM12 colon; 40.4 µM in the assay on LOX IMVI melanoma; 98.3 µM with M14 melanoma; 30.1 µM with NCI-H226 lung. Moreover, the TGI turned out to be 34.1 µM with NCI-H522 lung; 66.5 µM in the assay on RPMI-8226 leukemia; 49.6 µM in the assay with SF-268 CNS; 24.9 µM with SK-MEL-2 melanoma; 50.7 µM with SK-MEL-28 melanoma; 43 µM with UO-31 renal.

For the compound `CC1(C)O[C@@H]2[C@@H](COC(C)(C)O[C@H]2C2SCCCS2)O1`, the TGI in the assay on A549 NSCLC, in the assay on KM12 colon, in the assay with M14 melanoma, with NCI-H522 lung, with RPMI-8226 leukemia and in the assay with RXF 393 renal was more than 100 µM in each case. For the same compound, the TGI in the assay with SF-268 CNS, in the assay on SK-MEL-2 melanoma, in the assay with SK-MEL-28 melanoma and in the assay on UO-31 renal was more than 100 µM in each case.

As for `c1cc(-c2ccc(-c3ccsc3)s2)cs1`, the TGI was 64.5 µM in the assay on A549 NSCLC; more than 100 µM in the assay on EKVX NSCLC; more than 100 µM with LOX IMVI melanoma; more than 100 µM in the assay with M14 melanoma; 98.7 µM with NCI-H226 lung; more than 100 µM in the assay on NCI-H522 lung. Moreover, the TGI in the assay with RPMI-8226 leukemia is more than 100 µM; in the assay with RXF 393 renal, more than 100 µM; in the assay with SF-268 CNS it was more than 100 µM; in the assay on UO-31 renal, 98.4 µM.

Turning to `CCOC(=O)c1c(NC(=O)c2ccccc2)c(C#N)c2n1CCCCC2`, the TGI in the assay with A549 NSCLC, in the assay on EKVX NSCLC, with KM12 colon, with LOX IMVI melanoma, in the assay on M14 melanoma and in the assay with NCI-H226 lung was more than 100 µM in each case. In addition, the TGI in the assay on NCI-H522 lung, in the assay with RPMI-8226 leukemia, with RXF 393 renal, in the assay on SF-268 CNS, with SK-MEL-28 melanoma and in the assay on UO-31 renal was more than 100 µM in each case.

Turning to `CCOC(=O)CNC(=O)C(Cc1ccccc1)NC(=O)OCc1ccccc1` (centres undefined) (Cbz-[ξF]-Gly-OEt), the TGI in the assay on A549 NSCLC, with BT-549 breast, in the assay with EKVX NSCLC, with KM12 colon, with LOX IMVI melanoma and in the assay with M14 melanoma was more than 100 µM in each case. For the same compound, the TGI with NCI-H226 lung, in the assay with RPMI-8226 leukemia, in the assay on SF-268 CNS and in the assay on UO-31 renal was more than 100 µM in each case.

With `O=C1c2ccccc2N2OC3(N4CCOCC4)CCCC3C12c1ccccc1` (centres undefined), the TGI in the assay with A549 NSCLC, in the assay with EKVX NSCLC, in the assay on M14 melanoma, in the assay with NCI-H226 lung, with NCI-H522 lung and in the assay on RPMI-8226 leukemia was more than 100 µM each time. The TGI in the assay on RXF 393 renal, with SF-268 CNS, with SK-MEL-28 melanoma and in the assay with UO-31 renal was more than 100 µM in each case.

Take `Cc1[nH]n(-c2nc3c(c(=O)[nH]2)CCCC3)c(=O)c1CCO`: the TGI in the assay on A549 NSCLC, in the assay with EKVX NSCLC, in the assay on KM12 colon, in the assay on LOX IMVI melanoma, in the assay with M14 melanoma and with NCI-H226 lung was more than 100 µM each time. Further, the TGI with NCI-H522 lung, in the assay with RXF 393 renal, in the assay on SF-268 CNS, in the assay on SK-MEL-2 melanoma, in the assay with SK-MEL-28 melanoma and in the assay with UO-31 renal was more than 100 µM each time.
